Reference: patent US20070264324A1, “Use of Vegetable Anthraquinone Derivatives and Vegetable Polysaccharides For Treating Human Immunodeficiency Virus (HIV)” (priority 2004, published 2007)

Tested on: TC740 cells
Type: cell-based
Settings: 72 h
Description: The present invention relates to using emodin and RRP to inhibit HIV in an exogenous (however endocellular) environment, in order to attest their anti-HIV effectiveness. More specifically, the invention includes: • 1. Preparing emodin and RRP solutions with various concentrations (70-98% for emodin, and 80-95% for RRP). • 2. Culturing test subjects containing 100 μL of cells using cell incubator under 37° C. and 5% CO2 for 24 hours, forming monolayer on each culture media. • 3. Testing the toxicity of the agents: apply Rheum rhaponticum extractions to the monolayer on culture medium. Maintain the culture media under 37° C. and 5% CO2 for 72 hours, and observe the monolayer for cellular viability. […] These standard concentrations of emodin range between 70% and 98%, and those of RRP range between 80% and 95%. • 4. Testing the anti-HIV effectiveness of emodin and RRP: apply a specific concentration of HIV to those culture medium containing viable cells and already applied with emodin and/or RRP. Observe the viability of cells, and compare them with those in the control groups.
3. Cytotoxicity test: apply an emodin/RRP mixture with a concentration between 1600 μg/mL and 25 μg/mL to the culture medium, and maintain the medium under […] for 72 hours before observing.

With `Cc1cc(O)c2c(c1)C(=O)c1cc(O)cc(O)c1C2=O` [emodin] the “standard concentrations that do not affect the growth of cells” value was 70% and 98%.
